{"source": "paper PMC5608406", "about": "“In vivo activation of latent HIV with a synthetic bryostatin analog effects both latent cell \"kick\" and \"kill\" in strategy for virus eradication” (PLoS Pathogens, 2017)", "key": {"PKC epsilon": {"molecular_target": "T1, PKC epsilon (Homo sapiens, UniProt Q02156)", "T1 construct": "purchased Invitrogen", "T1 sequence (Q02156 1-737)": "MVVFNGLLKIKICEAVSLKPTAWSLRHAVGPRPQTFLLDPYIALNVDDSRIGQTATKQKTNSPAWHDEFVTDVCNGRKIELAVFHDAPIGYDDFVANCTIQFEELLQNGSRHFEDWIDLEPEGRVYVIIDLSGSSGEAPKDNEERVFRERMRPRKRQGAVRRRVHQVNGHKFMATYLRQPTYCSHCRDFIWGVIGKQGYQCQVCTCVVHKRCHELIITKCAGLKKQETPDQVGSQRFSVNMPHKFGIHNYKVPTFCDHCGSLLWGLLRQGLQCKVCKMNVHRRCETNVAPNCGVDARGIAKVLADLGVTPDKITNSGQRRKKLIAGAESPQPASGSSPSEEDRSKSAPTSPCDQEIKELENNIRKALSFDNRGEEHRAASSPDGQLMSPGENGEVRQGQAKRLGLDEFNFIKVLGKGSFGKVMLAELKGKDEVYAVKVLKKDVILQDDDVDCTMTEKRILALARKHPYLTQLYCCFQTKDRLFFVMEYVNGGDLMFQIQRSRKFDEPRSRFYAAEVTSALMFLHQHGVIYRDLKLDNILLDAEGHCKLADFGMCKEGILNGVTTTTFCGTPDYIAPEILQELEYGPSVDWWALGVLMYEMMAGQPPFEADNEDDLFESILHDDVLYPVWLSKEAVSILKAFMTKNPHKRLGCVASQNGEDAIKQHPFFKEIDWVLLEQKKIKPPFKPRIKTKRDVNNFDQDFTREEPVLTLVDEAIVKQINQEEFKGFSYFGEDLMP", "assay": "PKC binding assay, competition with 3H-PDBu", "method": "This entails a glass-fiber filtration method to determine bound radioligand.\nTo a polypropylene vial was added Tris-HCl (pH 7.4, 1 M, 1 mL), KCl (1 M, 2 mL), CaCl2 (0.1 M, 30 μL), and bovine serum albumin (40 mg, from Sigma). This mixture was diluted to 20 mL with deionized H2O, and mixed gently. The buffer was stored on ice until use. The final concentration of these constituents are shown in S2 Table.\nFor every 2 assays, 3.5 mg phosphatidylserine (Avanti Polar Lipids, porcine, obtained as a solution in CHCl3) was isolated by removing chloroform under a stream of nitrogen followed by reduced pressure. The solid PS was suspended as vesicles in binding assay buffer (3.5 mL) by sonicating (Branson Sonifier 250, power = 2, 50% duty cycle) six times for 30 s with a 30 s rest between sonications. The resulting cloudy mixture (1 mg/mL PS) was stored on ice until use.\nAssay Protein Kinase C (PKC) was prepared by dissolving a 4 μg aliquot of the indicated recombinant human PKC isoform (Invitrogen) into 11.6 mL of binding assay buffer. The KD values for all 7 isoforms were determined experimentally. The diluted PKC was stored on ice for immediate use. This amount is sufficient for 2 assays with room for error.\nThis 500 nM stock solution was further diluted in DMSO to 30 nM for use in assays. The 500 nM and 30 nM stock solutions were stored frozen in DMSO at −20°C until use. […] Seven analog concentrations were used to define the inhibition curve.\nThe resulting solution was vortexed to mix and stored on ice.\nTriplicate data points were obtained for each analog concentration. For each data point, 280 μL of Master Mix Solution and test compound at the given concentration (20 μL) were added to a polypropylene tube. […] Counts per minute (cpm) were averaged for each triplicate dilution."}, "[1]": {"assay": "Plasma cytokine quantification after in vivo administration", "conditions": "following administration to C57/bl6 mice", "method": "Quantification of the levels of the murine cytokines IL-2, IL-6, MIP-1-alpha, and TNF-alpha in mouse plasma samples was performed using a custom Milliplex Mouse Cytokine/Chemokine Magnetic Kit (Millipore) according to the manufacturer’s recommendations. Wash steps were performed using a Bio-Plex II Wash Station (Bio-Rad), and the data were acquired using a Bio-Plex 200 System with high-throughput fluidics (Bio-Rad). The resultant data were analyzed using Bio-Plex Manager 6.1 software."}, "C57/bl6 mice": {"system": "C57/bl6 mice", "assay": "In vivo acute toxicity / tolerability in C57/bl6 mice", "conditions": "intraperitoneal injection, in some cases", "method": "C57/bl6 mice were obtained from the UCLA Department of Radiation Oncology. Compounds were suspended in DMSO and then further diluted in RF10 media to produce a final volume of 500 μL (containing a maximum 4% DMSO). These 500 μL volumes were administered to mice by intraperitoneal injection. Mice were monitored for acute toxicities and then sacrificed at the indicated times. Spleens were removed and disaggregated using a steel mesh, and then filtered through a 40 μm filter to produce a single-cell suspension. The resultant splenocytes were then stained for flow cytometry to analyze surface expression of relevant markers."}}, "note": "Entries after “also recorded” stand apart in the source; their conditions may differ.", "data": [{"smiles": "C=C1C[C@H]2C[C@]3(O)O[C@H](C[C@@H](O)CC(=O)O[C@@H](CO)C[C@@H]4C/C(=C\\C(=O)OC)[C@H](OC(=O)CCCCCCC)[C@@](O)(O4)C(C)(C)/C=C/[C@@H](C1)O2)C[C@H](OC(C)=O)C3(C)C", "note": "[SUW133]", "values": [{"measurement": "Ki", "setting": "PKC epsilon", "result": 5.8, "unit": "nM"}, {"measurement": "plasma concentration of MIP-1-alpha", "setting": "[1]", "result": "no detectable increase"}, {"measurement": "plasma concentration of TNF-alpha", "setting": "[1]", "result": "no detectable increase"}, {"measurement": "plasma concentration of interleukin (IL)-2", "setting": "[1]", "result": "no detectable increase"}, {"measurement": "plasma IL-6 levels", "setting": "[1]; days 1 to 9", "result": "only a short-term elevation; also recorded: declined significantly between days 1 and 9 post-injection"}, {"measurement": "tolerated dose", "setting": "C57/bl6 mice", "result": "up to 30 μg per animal"}]}]}
